What was measured:
Assay type in all cases: cell-based
[1] = target: T1, human TLR8 (Homo sapiens, UniProt Q9NR97); assay: NFκB-luciferase reporter in HEK-293 cells stably transfected with human TLR8; details: HEK-293 with human TLR8, ORN complexed to DOTAP, 16 hours
T1 construct: expressed in transfected cells
T1 sequence (Q9NR97 27-1041): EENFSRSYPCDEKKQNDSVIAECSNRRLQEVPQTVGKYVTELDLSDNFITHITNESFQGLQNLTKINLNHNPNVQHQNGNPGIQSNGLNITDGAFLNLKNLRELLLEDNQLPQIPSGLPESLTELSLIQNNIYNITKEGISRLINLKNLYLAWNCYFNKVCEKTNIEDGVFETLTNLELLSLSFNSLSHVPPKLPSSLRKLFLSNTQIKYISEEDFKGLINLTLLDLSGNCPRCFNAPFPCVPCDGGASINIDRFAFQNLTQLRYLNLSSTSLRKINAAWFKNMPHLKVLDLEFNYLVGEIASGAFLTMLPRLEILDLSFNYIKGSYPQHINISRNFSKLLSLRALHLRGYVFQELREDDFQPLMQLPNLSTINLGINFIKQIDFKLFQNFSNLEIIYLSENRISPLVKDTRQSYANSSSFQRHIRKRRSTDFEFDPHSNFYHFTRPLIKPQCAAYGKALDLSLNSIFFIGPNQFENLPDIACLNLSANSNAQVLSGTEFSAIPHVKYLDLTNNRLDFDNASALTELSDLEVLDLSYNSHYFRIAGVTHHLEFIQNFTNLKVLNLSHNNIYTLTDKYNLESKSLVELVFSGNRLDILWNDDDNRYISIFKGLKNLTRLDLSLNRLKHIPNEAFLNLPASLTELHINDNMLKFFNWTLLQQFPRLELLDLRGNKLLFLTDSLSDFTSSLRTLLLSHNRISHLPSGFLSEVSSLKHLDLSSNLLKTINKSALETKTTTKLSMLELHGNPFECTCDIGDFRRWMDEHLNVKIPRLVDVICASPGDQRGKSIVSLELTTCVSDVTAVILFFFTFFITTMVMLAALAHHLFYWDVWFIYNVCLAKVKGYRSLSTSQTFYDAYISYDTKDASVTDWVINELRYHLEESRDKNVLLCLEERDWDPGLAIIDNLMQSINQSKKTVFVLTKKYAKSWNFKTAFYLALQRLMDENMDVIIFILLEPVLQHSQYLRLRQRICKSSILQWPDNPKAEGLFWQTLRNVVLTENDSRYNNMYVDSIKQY
Description: Stable-transfected HEK-293 cells with NFκB-luciferase read out reporter and human TLR8 were stimulated for 16 hours with indicated ORN. After 16 hours the supernatants were removed, the cells lysed and the luciferase activity or cytokine level was measured. FIGS. 9a and 9b show fold induction of NFκB-luciferase after stimulus.
Unresponsive HEK-293 cells were stably transfected with human TLR3 or TLR8 expression plasmid and NFκB-luciferase reporter gene construct. Cells were incubated with the indicated ORN sequences (10 μM complexed to 50 μg/ml DOTAP) or control stimuli (10 μM R-848, 50 μg/ml polyIC, 3.3 μM ODN 10103 or 50 μg/ml DOTAP) for 16 hours. NFκB-activation was measured by assaying luciferase activity. Results are given as fold induction above background (medium). One representative experiment of 6 independent repetitions is presented (FIG. 9a).
Stable-transfected HEK-293 cells expressing human TLR8 were stimulated with indicated concentrations of ORN complexed to DOTAP (50 μg/ml->1/3 dilution) or DOTAP alone (50 μg/ml->1/3 dilution) for 16 hours. NFκB activation was measured by assaying luciferase activity. Results are given as fold induction above background (medium). […]
Unresponsive HEK-293 cells were stably transfected with human TLR8 expression plasmid and NFκB-luciferase reporter gene construct. […] NFκB-activation was measured by assaying luciferase activity. […]

[2] = test system: Bovine PBMC; assay: Cytokine production by bovine PBMC (48 hours, ELISA); details: 10 μg/ml (H.D.) and 2.5 μg/ml (L.D.)
Description: FIG. 11 is a set of bar graphs showing differences between TLR8 ORN (SEQ ID NO:13) and TLR7/8 ORN (SEQ ID NO:21). SEQ ID NO:5 ORN was used as a control. Bovine PBMC were incubated with either 10 μg/ml ORN (HD) or 2.5 μg/ml ORN (LD) for 48 hours. Supernatants were collected and analyzed by ELISA. FIGS. 11a-c show the level of IL-12, IFN-γ, and TNF-alpha, respectively.
The assay was repeated with a TLR8 ORN (SEQ ID NO:13), a TLR 7/8 ORN (SEQ ID NO:21) and a control ORN (SEQ ID NO:5) (Table 3) at both a high dose (H.D., 10 μg/ml) and a low dose (L.D., 2.5 μg/ml).

[3] = test system: Raw264.7 cells, J774 cells, purified mouse CD11c+ cells; assay: Cytokine production by mouse cells in vitro (ELISA); details: ORN complexed to DOTAP, 16 or 20 hours
Description: Cells used were mouse macrophage cell line Raw264.7 cells (FIG. 12a), J774 cells (FIG. 12b), purified mouse CD11c+ cells (sv129 mice) (FIGS. 12c-12h) and mouse cells in vivo. Cytokine concentration was evaluated by ELISA.
Raw264.7 cells (FIG. 12a), J774 cells (FIG. 12b) and purified CD11c+ cells (Milteny, magnetic bead labeling) were isolated from sv129 mice splenocytes (FIGS. 12c-12e) and were stimulated with indicated concentrations of ORN complexed to DOTAP (50 μg/ml and diluted with ORN), R-848 or DOTAP alone (50 μg/ml). After 16 hours (FIGS. 12a and 12b) or 20 hours (FIGS. 12c-12e) supernatants were harvested and used for TNF-alpha (FIGS. 12a and 12b), IL-12p40 (FIG. 12c), IFN-alpha (FIG. 12d) and IP-10 (FIG. 12e) ELISA. Data represent one individual from at least three experiments (FIGS. 12a and 12b) and mean of 3 mice (FIGS. 12c-12e). To measure the ability of AU-rich ORN to stimulate mouse cells in vivo, sv129 mice (n=5/group) were injected with the indicated amounts of ORN formulated with DOTAP (60, 20 or 6 μg/ml), and bled after 3 hours. IL-12p40 (FIG. 12f), IFN-alpha (FIG. 12g) and IP-10 (FIG. 12h) production was measured within whole blood by ELISA.

| Substance | human TLR8 signaling (NFκB-luciferase fold induction) [1] | IFN-γ production [2] | IL-12 production [2] | TNF-alpha production [2] | response of mouse macrophages/cells in vitro (TNF-alpha, IL-12p40, IFN-alpha, IP-10) [3] |
| --- | --- | --- | --- | --- | --- |
| U*U*G*U*U*G*U*U*G*U*U*G*U*U*G*U*U*G*U*U (UUGUUGUUGUUGUUGUUGUU; listed as RNA, chemistry not fully specified) [SEQ ID NO: 21] | Stimulate Specific Human TLR8 Signaling in a Dose Dependent Manner | stimulated production of IFN-γ | significant production of IL-12 and TNF-alpha | significant production of IL-12 and TNF-alpha | – |
| U*U*A*U*U*A*U*U*A*U*U*A*U*U*A*U*U*A*U*U (UUAUUAUUAUUAUUAUUAUU; chemistry not fully specified) [SEQ ID NO: 13] | Stimulate Specific Human TLR8 Signaling in a Dose Dependent Manner | stimulated production of IFN-γ | – | – | do not Respond |

Source: patent US8354522B2, “Immunostimulatory oligoribonucleotides” (Coley Pharmaceutical GmbH, priority 2005, dated 2013)
